Patent US20240158446A1, “CYCLIC COMPOUND HAVING SELECTIVE INHIBITORY ACTION ON KRAS OVER HRAS AND NRAS” (CHUGAI SEIYAKU KABUSHIKI KAISHA, priority 2021, published 2024)
Where a SMILES comes first, the peptide text is derived from it. Bridges are numbered along the chain shown (N, C = ends). [ ]: non-standard residue; d: D form. The star is where a group is joined. hPhe(3-Cl-4-CF3) = N[C@@H](CCc1ccc(C(F)(F)F)c(Cl)c1)C(=O)O; NPrPhe(4-CF3) = CCCN[C@@H](Cc1ccc(C(F)(F)F)cc1)C(=O)O; NMeGly(cPent) = CN[C@H](C(=O)O)C1CCCC1; NMeNva(3-Et) = CCC(CC)[C@H](NC)C(=O)O; NMeD = CN[C@@H](CC(=O)O)C(=O)O; NMeL = CN[C@@H](CC(C)C)C(=O)O; Morpholide = C1CN(*)CCO1; NMeA = CN[C@@H](C)C(=O)O; Ac5c = NC1(C(=O)O)CCCC1; Aze = O=C(O)[C@@H]1CCN1; Ac4c = NC1(C(=O)O)CCC1; Sar = CNCC(=O)O

Legend:
[1] = biological target: GDP-bound KRAS wild-type protein (Homo sapiens, UniProt P01116); experiment: Binding to KRAS by surface plasmon resonance (SPR), Single Cycle Kinetics; conditions: SPR, Single Cycle Kinetics, GDP-bound KRAS wild-type protein; read-out: KRAS KD
[2] = biological target: GDP-bound NRAS wild-type protein (Homo sapiens, UniProt P01111); experiment: Binding to NRAS by surface plasmon resonance (SPR), Single Cycle Kinetics; conditions: ratio of KD for GDP-bound NRAS wild-type protein to KD for KRAS, SPR
[3] = biological target: GDP-bound HRAS wild-type protein (Homo sapiens, UniProt P01112); experiment: Binding to HRAS by surface plasmon resonance (SPR), Single Cycle Kinetics; conditions: ratio of KD for GDP-bound HRAS wild-type protein to KD for KRAS, SPR
[4] = tested on: human lung cancer strain NCI-H441; experiment: cells; conditions: NCI-H441, 96 h, read-out: NCI-H441 IC50 (nM), NCI-H441 cell proliferation, 4 days, CellTiter-Glo;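 further: cell proliferation inhibition after four days measured by CellTiter-Glo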

Chain of GDP-bound HRAS wild-type protein (P01112 whole entry): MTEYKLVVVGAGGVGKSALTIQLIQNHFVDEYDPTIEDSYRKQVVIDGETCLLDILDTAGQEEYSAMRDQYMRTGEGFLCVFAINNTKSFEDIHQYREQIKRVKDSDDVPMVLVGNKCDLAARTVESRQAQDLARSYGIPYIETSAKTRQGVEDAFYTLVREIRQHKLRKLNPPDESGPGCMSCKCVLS
Chain of GDP-bound KRAS wild-type protein (P01116 whole entry): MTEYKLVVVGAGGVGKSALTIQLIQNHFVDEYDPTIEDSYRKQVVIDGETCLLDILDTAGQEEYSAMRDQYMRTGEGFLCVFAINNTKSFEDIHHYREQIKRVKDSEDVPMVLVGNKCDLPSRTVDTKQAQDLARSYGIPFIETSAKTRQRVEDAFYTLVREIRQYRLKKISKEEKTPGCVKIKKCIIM
Chain of GDP-bound NRAS wild-type protein (P01111 whole entry): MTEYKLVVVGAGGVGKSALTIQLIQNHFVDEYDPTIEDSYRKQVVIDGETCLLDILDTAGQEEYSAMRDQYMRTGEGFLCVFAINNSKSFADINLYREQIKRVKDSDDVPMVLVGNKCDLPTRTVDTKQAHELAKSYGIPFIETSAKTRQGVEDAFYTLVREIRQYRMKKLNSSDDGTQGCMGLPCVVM

Compound	Kd [1]	NRAS/KRAS (KD ratio) [2]	HRAS/KRAS (KD ratio) [3]	IC50 [4]
CCO[C@@H]1C[C@H]2C(=O)NC3(CCC3)C(=O)N(C)[C@@H](C3CCCC3)C(=O)N(C)[C@H](C(=O)N(C)C)CC(=O)N(C)[C@@H](CC)C(=O)N[C@@H]([C@@H](C)CC)C(=O)N(C)CC(=O)N(C)[C@H]3C/C=C\CCN(C3=O)[C@@H](Cc3ccc(C(F)(F)F)cc3)C(=O)N(C)CC(=O)N[C@@H](CCc3cc(C)c(Cl)c(C)c3)C(=O)N2C1 [PP1821]	0.63 nM	A (a compound having 10 or more and less than 20 is denoted as A)	A (a compound having 10 or more and less than 20 is denoted as A)	105 nM
CC[C@H](C)[C@@H]1NC(=O)[C@H](CC)N(C)C(=O)C[C@@H](C(=O)N(CC)CC)N(C)C(=O)[C@H](C2CCCC2)N(C)C(=O)C2(CC(C)(C)C2)NC(=O)[C@@H]2C[C@@H](C)CN2C(=O)[C@H](CCc2ccc(C(F)(F)F)c(OC)c2)NC(=O)CN(C)C(=O)[C@H](Cc2ccc(C)cc2)N2CC/C=C\C[C@@H](C2=O)N(C)C(=O)CN(C)C1=O [PP1841]	0.38 nM	AA (a compound having 20 or more is denoted as AA)	A (a compound having 10 or more and less than 20 is denoted as A)	24.3 nM
CCCN(C)C(=O)[C@@H]1CC(=O)N(C)[C@@H](CC(F)F)C(=O)N[C@@H]([C@@H](C)CC)C(=O)N(C)CC(=O)N(C)[C@H]2C/C=C\CCN(C2=O)[C@@H](Cc2ccc(C(F)(F)F)cc2)C(=O)N(C)CC(=O)N[C@@H](CCc2cc(F)c(C(F)(F)F)c(F)c2)C(=O)N2C[C@H](F)C[C@H]2C(=O)NC2(CC(C)(C)C2)C(=O)N(C)[C@@H](C2CCCC2)C(=O)N1C [PP1687]	0.075 nM	A (a compound having 10 or more and less than 20 is denoted as A)	A (a compound having 10 or more and less than 20 is denoted as A)	2.7 nM
CCOC[C@H]1C(=O)N[C@@H]([C@@H](C)CC)C(=O)N(C)CC(=O)N(C)[C@H]2C/C=C\CCN(C2=O)[C@@H](Cc2ccc(C(F)(F)F)cc2)C(=O)N(C)CC(=O)N[C@@H](CCc2ccc(C(F)(F)F)c(OC)c2)C(=O)N2C[C@H](OCC)C[C@H]2C(=O)NC2(CC(C)(C)C2)C(=O)N(C)[C@@H](C2CCCC2)C(=O)N(C)[C@H](C(=O)N(C)CC)CC(=O)N1C [PP2014]	0.093 nM	A (a compound having 10 or more and less than 20 is denoted as A)	A (a compound having 10 or more and less than 20 is denoted as A)	6.9 nM
CCO[C@@H]1C[C@H]2C(=O)NC3(CCC3)C(=O)N(C)[C@@H](C3CCCC3)C(=O)N(C)[C@H](C(=O)N(C)CC)CC(=O)N(C)[C@@H](C3CC3)C(=O)N[C@@H]([C@@H](C)CC)C(=O)N(C)CC(=O)N(C)[C@H]3C/C=C\CCN(C3=O)[C@@H](Cc3ccc(C(F)(F)F)cc3)C(=O)N(C)CC(=O)N[C@@H](CCc3ccc(C(F)(F)F)c(OC)c3)C(=O)N2C1 [PP2021]	0.12 nM	A (a compound having 10 or more and less than 20 is denoted as A)	B (a compound having 3 or more and less than 10 is denoted as B)	4.9 nM
CCO[C@@H]1C[C@H]2C(=O)NC3(CC(C)(C)C3)C(=O)N(C)[C@@H](C3CCCCC3)C(=O)N(C)[C@H](C(=O)N(C)C)CC(=O)N(C)[C@@H](CC)C(=O)N[C@@H]([C@@H](C)CC)C(=O)N(C)CC(=O)N(C)[C@H]3C/C=C\CCN(C3=O)[C@@H](Cc3ccc(C(F)(F)F)cc3)C(=O)N(C)CC(=O)N[C@@H](CCc3cc(F)c(C(F)(F)F)c(F)c3)C(=O)N2C1 [PP1942]	0.15 nM	AA (a compound having 20 or more is denoted as AA)	A (a compound having 10 or more and less than 20 is denoted as A)	25.7 nM
CC[C@H](C)[C@@H]1NC(=O)[C@H](CC)N(C)C(=O)C[C@@H](C(=O)N(C)C)N(C)C(=O)[C@H](C2CCCC2)N(C)C(=O)C2(CC(C)(C)C2)NC(=O)[C@@H]2C[C@@H](C)CN2C(=O)[C@H](CCc2ccc(C(F)(F)F)c(OC)c2)NC(=O)CN(C)C(=O)[C@H](Cc2ccc(C)cc2)N2CC/C=C\C[C@@H](C2=O)N(C)C(=O)CN(C)C1=O [PP1838]	0.1 nM	A (a compound having 10 or more and less than 20 is denoted as A)	A (a compound having 10 or more and less than 20 is denoted as A)	20 nM
CCO[C@@H]1C[C@H]2C(=O)NC3(CC(C)(C)C3)C(=O)N(C)[C@@H](C3CCCC3)C(=O)N(C)[C@H](C(=O)N(C)C)CC(=O)N(C)[C@@H](COC)C(=O)N[C@@H]([C@@H](C)CC)C(=O)N(C)CC(=O)N(C)[C@H]3C/C=C\CCN(C3=O)[C@@H](Cc3ccc(C(F)(F)F)cc3)C(=O)N(C)CC(=O)N[C@@H](CCc3ccc(C(F)(F)F)c(Cl)c3)C(=O)N2C1 [PP1753]	0.038 nM	A (a compound having 10 or more and less than 20 is denoted as A)	A (a compound having 10 or more and less than 20 is denoted as A)	5.9 nM
CC[C@H](C)[C@@H]1NC(=O)[C@H](CC)N(C)C(=O)C[C@@H](C(=O)N(C)C)N(C)C(=O)[C@H](C2CCCC2)N(C)C(=O)C2(CCCC2)N(C)C(=O)[C@@H]2C[C@@H](C)CN2C(=O)[C@H](CCc2cc(F)c(C(F)(F)F)c(F)c2)NC(=O)CN(C)C(=O)[C@H](Cc2ccc(C)cc2)N2CC/C=C\C[C@@H](C2=O)N(C)C(=O)[C@@H]2CCCN2C1=O [PP1814]	0.27 nM	A (a compound having 10 or more and less than 20 is denoted as A)	A (a compound having 10 or more and less than 20 is denoted as A)	26.2 nM
CCCN1C(=O)[C@@H]2CCN2C(=O)[C@H](C)N(C)C(=O)[C@H]([C@@H](C)CC)NC(=O)[C@H](CC(C)C)N(C)C(=O)C[C@@H](C(=O)N(C)C)N(C)C(=O)[C@H](C(CC)CC)N(C)C(=O)C2(CCC2)NC(=O)[C@@H]2CCCN2C(=O)[C@H](CCc2ccc(C(F)(F)F)c(Cl)c2)NC(=O)CN(C)C(=O)[C@@H]1Cc1ccc(C(F)(F)F)cc1 [PP1961] ([NMeL]I[NMeA][Aze][NPrPhe(4-CF3)][Sar][hPhe(3-Cl-4-CF3)]P[Ac4c][NMeNva(3-Et)][NMeD]-NMe2; lactam N-11)	0.22 nM	C (A compound having a KD ratio of 0.1 or more and less than 3 is denoted as C)	C (A compound having a KD ratio of 0.1 or more and less than 3 is denoted as C)	8 nM
CC[C@H](C)[C@@H]1NC(=O)[C@H](C2CCC2)N(C)C(=O)C[C@@H](C(=O)N(C)C)N(C)C(=O)[C@H](C2CCCC2)N(C)C(=O)C2(CC(C)(C)C2)NC(=O)[C@@H]2C[C@H](C)CN2C(=O)[C@H](CCc2ccc(C(F)(F)F)c(OC)c2)NC(=O)CN(C)C(=O)[C@H](Cc2ccc(C(F)(F)F)cc2)N2CC/C=C\C[C@@H](C2=O)N(C)C(=O)CN(C)C1=O [PP2011]	0.11 nM	A (a compound having 10 or more and less than 20 is denoted as A)	A (a compound having 10 or more and less than 20 is denoted as A)	10.3 nM
CCO[C@@H]1C[C@H]2C(=O)NC3(CC(C)(C)C3)C(=O)N(C)[C@@H](C3CCCC3)C(=O)N(C)[C@H](C(=O)N(C)C)CC(=O)N(C)[C@@H](CC(F)(F)F)C(=O)N[C@@H]([C@@H](C)CC)C(=O)N(C)CC(=O)N(C)[C@H]3C/C=C\CCN(C3=O)[C@@H](Cc3ccc(C(F)(F)F)cc3)C(=O)N(C)CC(=O)N[C@@H](CCc3cc(F)c(C(F)(F)F)c(F)c3)C(=O)N2C1 [PP1644]	0.038 nM	A (a compound having 10 or more and less than 20 is denoted as A)	A (a compound having 10 or more and less than 20 is denoted as A)	2.7 nM
CCO[C@@H]1C[C@H]2C(=O)NC3(CCC3)C(=O)N(C)[C@@H](C(CC)CC)C(=O)N3CCC[C@@H]3CC(=O)N(C)[C@@H](CC3CC3)C(=O)N[C@@H]([C@@H](C)CC)C(=O)N(C)CC(=O)N(C)[C@H]3C/C=C\CCN(C3=O)[C@@H](Cc3ccc(C(F)(F)F)cc3)C(=O)N(C)CC(=O)N[C@@H](CCc3cc(F)c(C(F)(F)F)c(F)c3)C(=O)N2C1 [PP1612]	1.2 nM	B (a compound having 3 or more and less than 10 is denoted as B)	B (a compound having 3 or more and less than 10 is denoted as B)	61.9 nM
CC[C@H](C)[C@@H]1NC(=O)[C@H](CC(F)F)N(C)C(=O)C[C@@H](C(=O)N(C)C)N(C)C(=O)[C@H](C2CCCC2)N(C)C(=O)C2(CC(C)(C)C2)NC(=O)[C@@H]2CC(F)(F)CN2C(=O)[C@H](CCc2cc(F)c(C(F)(F)F)c(F)c2)NC(=O)CN(C)C(=O)[C@H](Cc2ccc(C(F)(F)F)cc2)N2CC/C=C\C[C@@H](C2=O)N(C)C(=O)CN(C)C1=O [PP1709]	0.058 nM	A (a compound having 10 or more and less than 20 is denoted as A)	A (a compound having 10 or more and less than 20 is denoted as A)	3.8 nM
CCCN1C(=O)CN(C)C(=O)[C@H](C)NC(=O)[C@H]([C@@H](C)CC)NC(=O)[C@H](CC(C)C)N(C)C(=O)C[C@@H](C(=O)N2CCOCC2)N(C)C(=O)[C@H](C2CCCC2)N(C)C(=O)C2(CCCC2)NC(=O)[C@@H]2CCCN2C(=O)[C@H](CCc2ccc(C(F)(F)F)c(Cl)c2)NC(=O)CN(C)C(=O)[C@@H]1Cc1ccc(C(F)(F)F)cc1 [PP1971] ([NMeL]IA[Sar][NPrPhe(4-CF3)][Sar][hPhe(3-Cl-4-CF3)]P[Ac5c][NMeGly(cPent)][NMeD]-Morpholide; lactam N-11)	5 nM	B (a compound having 3 or more and less than 10 is denoted as B)	B (a compound having 3 or more and less than 10 is denoted as B)	38 nM
